Measurements taken from the supplement of paper PMC13380429.

Legend:
Details in all cases: 72 h
U2OS [1] = test: relative viability EC50 (midpoint between 100% and the lowest measured viability); higher = less toxic
Vero E6 [2] = test: as above
Calu-3 [3] = test: as above
HepG2 [4] = test: as above
U2OS [5] = test: drug sensitivity score (DSS) for viability; higher = more toxic; extreme values may be limits of the assay
Vero E6 [6] = test: as above
Calu-3 [7] = test: as above
HepG2 [8] = test: as above
U2OS [9] = test: cell viability relative to DMSO; higher = less toxic
Vero E6 [10] = test: as above
Calu-3 [11] = test: as above
HepG2 [12] = test: as above
Caco-2 [13] = test: relative viability EC50 (midpoint between 100% and the lowest measured viability); higher = less toxic
Caco-2 [14] = test: drug sensitivity score (DSS) for viability; higher = more toxic; extreme values may be limits of the assay
Caco-2 [15] = test: cell viability relative to DMSO; higher = less toxic

Row | SMILES | relative viability EC50 (U2OS [1]) [µM] | relative viability EC50 (Vero E6 [2]) [µM] | relative viability EC50 (Calu-3 [3]) [µM] | relative viability EC50 (HepG2 [4]) [µM] | drug sensitivity score (U2OS [5]) | drug sensitivity score (Vero E6 [6]) | drug sensitivity score (Calu-3 [7]) | drug sensitivity score (HepG2 [8]) | cell viability (U2OS [9]; 1 nM) [%] | cell viability (U2OS [9]; 10 nM) [%] | cell viability (U2OS [9]; 100 nM) [%] | cell viability (U2OS [9]; 1000 nM) [%] | cell viability (U2OS [9]; 10000 nM) [%] | cell viability (Vero E6 [10]; 1 nM) [%] | cell viability (Vero E6 [10]; 10 nM) [%] | cell viability (Vero E6 [10]; 100 nM) [%] | cell viability (Vero E6 [10]; 1000 nM) [%] | cell viability (Vero E6 [10]; 10000 nM) [%] | cell viability (Calu-3 [11]; 1 nM) [%] | cell viability (Calu-3 [11]; 10 nM) [%] | cell viability (Calu-3 [11]; 100 nM) [%] | cell viability (Calu-3 [11]; 1000 nM) [%] | cell viability (Calu-3 [11]; 10000 nM) [%] | cell viability (HepG2 [12]; 1 nM) [%] | cell viability (HepG2 [12]; 10 nM) [%] | cell viability (HepG2 [12]; 100 nM) [%] | cell viability (HepG2 [12]; 1000 nM) [%] | cell viability (HepG2 [12]; 10000 nM) [%] | relative viability EC50 (Caco-2 [13]) [µM] | drug sensitivity score (Caco-2 [14]) | cell viability (Caco-2 [15]; 1 nM) [%] | cell viability (Caco-2 [15]; 10 nM) [%] | cell viability (Caco-2 [15]; 100 nM) [%] | cell viability (Caco-2 [15]; 1000 nM) [%] | cell viability (Caco-2 [15]; 10000 nM) [%]
1 | O=C1c2ccccc2C(=O)c2ccccc21 [anthraquinone] | > 10 | > 10 | > 10 | > 10 | 0 | 0 | 0 | 0 | 105 | 99.7 | 103 | 99.2 | 105 | 105 | 106 | 99.8 | 104 | 101 | 94.9 | 97.4 | 95.8 | 88 | 98.2 | 95.2 | 106 | 96.2 | 94.2 | 92.6 |  |  |  |  |  |  | 
2 | Cn1nnc(-c2ccc(-c3ccc(N4C[C@H](CO)OC4=O)cc3F)cn2)n1 [tedizolid] | > 10 | > 10 | > 10 |  | 0 | 0 | 0 | 5.1 | 101 | 102 | 96.7 | 96.3 | 94.1 | 94 | 99.6 | 98.3 | 101 | 92.9 | 103 | 95.4 | 99.6 | 108 | 106 | 111 | 95.4 | 99.5 | 76.9 | 55.7 | > 10 | 0.6 | 113 | 106 | 94.2 | 93.3 | 82.2
3 | N#Cc1c(N)nc(SCc2csc(-c3ccc(Cl)cc3)n2)c(C#N)c1-c1ccc(OCCO)cc1 [capadenoson] | > 10 | > 10 | > 10 | > 10 | 0.6 | 0 | 0 | 0 | 99.2 | 95.2 | 101 | 100 | 79.3 | 93 | 98.5 | 95.6 | 102 | 102 | 98 | 102 | 104 | 104 | 95.6 | 89 | 108 | 95.3 | 105 | 107 |  | 0.8 | 102 | 94.6 | 98.8 | 104 | 74.8
4 | O=c1[nH]c(=O)n([C@H]2C[C@H](O)[C@@H](CO)O2)cc1I [idoxuridine] | > 10 | > 10 | > 10 |  | 0 | 0.3 | 0 | 2.8 | 98.4 | 103 | 101 | 106 | 99.6 | 99.1 | 104 | 97.8 | 99.8 | 84.5 | 106 | 96.6 | 110 | 93 | 96.5 | 101 | 104 | 95.8 | 94 | 62.5 | > 10 | 0 | 101 | 101 | 94 | 105 | 95.9
5 | COc1ccc(CCN)cc1OC [homoveratrylamine] | > 10 | > 10 | > 10 | > 10 | 0 | 0 | 0 | 0 | 94.6 | 96.1 | 97.6 | 97.3 | 101 | 108 | 106 | 94.9 | 97.5 | 96.4 | 100 | 85.6 | 113 | 98.2 | 95.7 | 110 | 103 | 98.2 | 108 | 115 |  | 2.9 | 89.4 | 77.6 | 110 | 79.4 | 73
6 | COc1ccccc1Oc1c(NS(=O)(=O)c2ccc(C(C)(C)C)cc2)nc(-c2ncccn2)nc1OCCO [bosentan] | > 10 | > 10 | > 10 |  | 0 | 0.2 | 0 |  | 98 | 102 | 98 | 99.9 | 91 | 95.1 | 100 | 94.3 | 93.9 | 85.3 | 102 | 94.2 | 99.1 | 114 | 102 |  |  |  |  |  | > 10 | 0.9 | 106 | 98.4 | 103 | 96.6 | 81.1
7 | Cc1c(C(=O)Nc2ccc(N3C[C@@H](C)O[C@@H](C)C3)nc2)cccc1-c1ccc(OC(F)(F)F)cc1 [sonidegib] | > 10 | > 10 | > 10 |  | 0.3 | 0.2 | 0 | 1.4 | 99.5 | 94.1 | 102 | 96.5 | 87.3 | 105 | 109 | 102 | 104 | 84 | 109 | 98.4 | 92.7 | 97.9 | 97.2 | 104 | 96.8 | 99.7 | 98.9 | 71.3 | > 10 | 0.7 | 102 | 98.8 | 95.7 | 98 | 81.4
8 | Cc1[nH]c2ccc(O)cc2c1CCN [2-methyl-5-hydroxytryptamine] | > 10 | > 10 | > 10 |  | 0 | 0 | 0 |  | 101 | 101 | 97.3 | 106 | 101 | 95 | 96.5 | 98.4 | 96.6 | 94.9 | 109 | 109 | 102 | 101 | 99.3 |  |  |  |  |  | > 10 | 0 | 104 | 105 | 98.3 | 102 | 102
9 | CN(c1nccc(=O)[nH]1)C1CCN(c2nc3ccccc3n2Cc2ccc(F)cc2)CC1 [mizolastine] | > 10 | > 10 | > 10 |  | 0 | 0 | 0 |  | 101 | 98.5 | 101 | 103 | 102 | 97.5 | 101 | 98.6 | 97.8 | 107 | 103 | 104 | 99.5 | 102 | 108 |  |  |  |  |  | > 10 | 0 | 89.5 | 99.9 | 98 | 100 | 98.3
10 | CC1=C(/C=C/C(C)=C/C=C/C(C)=C/C=O)C(C)(C)CCC1 [retinaldehyde] | > 10 | > 10 | > 10 |  | 0 | 0 | 0.6 |  | 104 | 107 | 101 | 99.4 | 92.9 | 99.2 | 95.1 | 95.2 | 95.3 | 99.9 | 98.9 | 108 | 104 | 88.8 | 87.4 |  |  |  |  |  | > 10 | 0 | 100 | 104 | 89.5 | 97.8 | 90.4
11 | CC(C)=CCC[C@](C)(O)[C@H]1CC[C@]2(C)[C@@H]1[C@H](O)C[C@@H]1[C@@]3(C)CC[C@H](O)C(C)(C)[C@@H]3[C@@H](O)C[C@]12C [hemomex-s] | > 10 | > 10 | > 10 |  | 0 | 0 | 0 |  | 97.4 | 101 | 99.8 | 101 | 100 | 96.1 | 93.9 | 96.6 | 98.8 | 99.2 | 105 | 109 | 112 | 105 | 93.4 |  |  |  |  |  | > 10 | 0 | 113 | 106 | 103 | 111 | 96.9
12 | CCCCCCCCCCCCCCCCO [1-hexadecanol] | > 10 | > 10 | > 10 |  | 0 | 0 | 0 |  | 97.8 | 100 | 97 | 97.3 | 92.7 | 99.7 | 97.3 | 96 | 95.9 | 102 | 94 | 95.5 | 102 | 95.5 | 97.3 |  |  |  |  |  | > 10 | 0 | 107 | 97.4 | 87.3 | 96.6 | 95.1
13 | N=C(N)NCCC[C@@H](NC(=O)[C@@H]1CCCN1C(=O)[C@@H]1CSSCCC(=O)N[C@@H](Cc2ccc(O)cc2)C(=O)N[C@@H](Cc2ccccc2)C(=O)N[C@@H](CCC(N)=O)C(=O)N[C@@H](CC(N)=O)C(=O)N1)C(=O)NCC(N)=O [desmopressin-acetate] | > 10 | > 10 | > 10 | > 10 | 0 | 0 | 0 | 0 | 97.5 | 93.8 | 96.6 | 96.3 | 100 | 105 | 108 | 106 | 101 | 99.4 | 101 | 92.7 | 110 | 93.4 | 102 | 106 | 96.2 | 110 | 107 | 106 |  |  |  |  |  |  | 
